Assay results as given in ChEMBL document CHEMBL2375333, “Triterpenes from the aerial parts of Cimicifuga yunnanensis and their antiproliferative effects on p53(N236S) mouse embryonic fibroblasts” (J Nat Prod, 2013).

How the values were obtained:
MEF [1] = test: Cytotoxicity against p53-/- mouse MEF cells harboring H-RasV12 after 48 hrs by MTT assay; assay type: functional, cell-based
MEF [2] = test: Cytotoxicity against mouse wild type MEF cells after 48 hrs by MTT assay; assay type: cell-based
MEF [3] = test: Cytotoxicity against mouse MEF cells harboring H-RasV12 and p53 N236S mutant after 48 hrs by MTT assay; assay type: functional, cell-based

Row | Structure (SMILES) | IC50 (MEF [1]) | IC50 (MEF [2]) | IC50 (MEF [3])
1 | C=C(C)[C@@H]1O[C@]23O[C@@H]1C[C@@H](C)[C@@H]2[C@@]1(C)CC[C@@]24C[C@@]25CC[C@H](O)C(C)(C)[C@@H]5CC[C@H]4[C@]1(C)[C@H]3O | 6.2 µM |  | 
2 | C[C@@H]1C[C@]2(OC[C@](C)(O)[C@H]2O)O[C@H]2C[C@@]3(C)C4=C(C[C@@H](O)[C@]3(C)[C@@H]12)[C@@]1(C)CC[C@H](O)C(C)(C)[C@@H]1CC4 |  | 14.5 µM | 5.5 µM
3 | CC(=O)O[C@@H]1C[C@@]23C[C@@]24CC[C@H](O)C(C)(C)[C@@H]4CC[C@H]3[C@]2(C)C[C@@H]3OC(=O)C[C@@H](C)[C@@H]3[C@@]12C | 7.5 µM |  | 
4 | C[C@@H]1C[C@@]2(O[C@H]3C[C@@]4(C)[C@@H]5CC[C@H]6C(C)(C)[C@@H](O)CC[C@@]67C[C@@]57C[C@@H](O)[C@]4(C)[C@@H]13)O[C@H](O)[C@]1(C)O[C@H]21 [ACTEOL] | 7.4 µM |  | 
5 | C[C@@H]1C[C@H]2O[C@]3(O[C@@H]2C(C)(C)O)[C@H]1[C@@]1(C)CCC2=C(CC[C@H]4C(C)(C)[C@@H]5CC[C@@]4(C2)O5)[C@]1(C)[C@H]3O [ACERINOL] | 10.2 µM |  | 
6 | C[C@@H]1C[C@H]2O[C@@]3(O[C@@H]2C(C)(C)O)[C@H]1[C@@]1(C)[C@H](O)C[C@@]24C[C@@]25CC[C@H](O)C(C)(C)[C@@H]5CC=C4[C@]1(C)[C@H]3O | 9.8 µM |  | 
7 | C[C@@H]1C[C@]2(OC[C@](C)(O)[C@H]2O)O[C@H]2C[C@@]3(C)C4=CC[C@H]5C(C)(C)[C@@H](O)CC[C@]5(C)C4=CC[C@]3(C)[C@@H]12 |  | 6 µM | 8.6 µM
